{
  "source": "patent US20250381165A1",
  "about": "“Method of Use for Benzofuran Compounds” (Tampa Bay Research Institute, Inc., priority 2024, published 2025)",
  "key": {"[1]": {"tested_on": "MHC class I H-2Kb on IMG cells", "experiment": "Surface MHC class I H-2Kb on IMG cells (AF6-88.5.5.3 flow cytometry)", "assay_type": "cell-based, murine", "conditions": "25 μg/mL", "description": "By using an MHC class I H-2K^b specific antibody, a relative comparison of the surface MHC class I was measured before and after BzFβ treatment of DC2.4 and IMG cells. […] Cells were centrifuged and washed using cold FACS buffer (DPBS with 5% FBS, 2 mM EDTA, 0.1% sodium azide). Cells were blocked with Fc block (bioLegend™; cat. no. 101320) for 10 min to 15 min to inhibit non-specific binding, followed by staining with fluorophore-conjugated antibodies; one set of cells was stained with the PE-labeled MHC/SIINFEKL specific antibody (clone 25-D1.16, Invitrogen™, Thermo Fisher Scientific Inc., Waltham, MA; cat. no. 12-5743-82), and the other set was stained with the PE-labeled MHC class I H-2Kb specific antibody (AF6-88.5.5.3,Invitrogen™, Thermo Fisher Scientific Inc., Waltham, MA; cat. no. 12-5958-82) PE-labeled MHC class I H-2kb specific (clone AF6-88.5.5.3; Invitrogen™, Thermo Fisher Scientific Inc., Waltham, MA; cat. no. 12-5958-82), for 30 min at 4° C. After washing, the cells were subjected to flow cytometric analysis with the Attune NxT Flow Cytometer (Invitrogen). Cells were gated based on live single-cell populations and positives were assessed using isotype controls and fluor-minus-one analysis when needed. Data were analyzed using the Attune NxT software or FlowJo versions 10.7 and 10.8."}, "B3Z cells": {"tested_on": "B3Z cells", "experiment": "Direct treatment of B3Z cells", "assay_type": "cell-based, murine", "conditions": "BzFβ alone; data not shown"}, "HEK293T": {"tested_on": "HEK293T", "experiment": "CellTiter-Glo cell viability, HEK293T", "assay_type": "cell-based", "conditions": "Homo sapiens, HEK-293T", "description": "BzFβ was then examined for its effect on the viability of several murine and human cell lines and primary murine splenocytes. The cytotoxicity of BzFβ was assessed using the CellTiter-Glo […] assay system according to manufacturer's instructions to determine BzFβ's effect on the viability of several murine and human cell lines and primary murine splenocytes.\nDC2.4 cell line (Dr. Kenneth Rock, University of Massachusetts), RAW 264.7 cell line (American Type Culture Collection (ATCC), Manassas, VA; TIB 71), and IMG cell line (Millipore™, Merck KGaA, Burlington, MA; cat. no. SC-C134) were each cultured in complete Dulbecco's Modified Eagle Medium (cDMEM) containing […] glucose (Gibco™, Thermo Fisher Scientific Inc., Waltham, MA; cat. no. 10566-016) and supplemented with GlutaMAX, 50 U/mL penicillin and 50 µg/mL streptomycin (Gibco™; cat. no. 15070-063) and 10% heat inactivated fetal bovine serum (FBS) (R&D Systems, Inc., Minneapolis, MN; cat. no. […]\nThe cytotoxicity of BzFβ was assessed using the CellTiter-Glo cell […] viability assay system […] cat. no. […] CellTiter-Glo was added 1:1 in the media and the level of chemiluminescence was measured using luminescence at wavelengths of 200 nm to 700 nm through a photomultiplier on BioTek's Synergy HTX multimode microplate reader. […]"}, "[2]": {"biological_target": "T1, MHC class I H-2Kb tetramer (Mus musculus, UniProt P01901)", "T1 construct": "purchased MBL International Corporation TB-7400-K2", "T1 sequence (P01901 22-295 limits assumed)": "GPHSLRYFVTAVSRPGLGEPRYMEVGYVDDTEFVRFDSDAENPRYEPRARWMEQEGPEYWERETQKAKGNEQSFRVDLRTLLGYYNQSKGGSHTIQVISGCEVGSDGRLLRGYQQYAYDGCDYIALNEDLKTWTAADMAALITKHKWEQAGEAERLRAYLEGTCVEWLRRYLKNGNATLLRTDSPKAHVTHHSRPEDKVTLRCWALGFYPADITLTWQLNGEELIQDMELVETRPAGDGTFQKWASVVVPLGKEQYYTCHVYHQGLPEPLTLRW", "T1 sequence (P61769 21-119 partner)": "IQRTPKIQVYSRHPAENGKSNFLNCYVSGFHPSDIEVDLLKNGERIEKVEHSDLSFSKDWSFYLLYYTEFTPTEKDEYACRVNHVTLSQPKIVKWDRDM", "experiment": "QuickSwitch tetramer peptide exchange assay, H-2Kb", "assay_type": "biochemical, murine", "conditions": "p<0.001; p=0.0013"}, "[3]": {"experiment": "Solubility in alkaline water", "assay_type": "physicochemical", "conditions": "pH 10, aqueous buffer, read-out: limit to the solubility in alkaline water (converted)", "description": "Mice were gavaged with BzFβ at doses ranging from 25 mg/kg body to 100 mg/kg body weight, injected intravenously (iv) with 50 μg BzFβ or injected intramuscularly with BzFβ at 25 to 40 mg/kg body weight. For two weeks post-treatment, water intake and weight were monitored. […] The limit to the solubility of BzFβ in alkaline water is 4 mg, therefore no further doses were tested."}, "[4]": {"experiment": "In vivo toxicity after gavage, iv or im injection", "description": "Six- to ten-week-old male and female C57BL/6NCrl mice (cat. no. 027, Charles River Laboratories, Wilmington MA) were used for all animal studies. The mice were maintained in accord with the NIH Guide for the Care and Use of Laboratory Animals. Experimental procedures were performed in accord with research protocols approved by the Tampa Bay Research Institute's Institutional Animal Care and Use Committee. Mice were maintained in an INOVIVE individually ventilated cage system with 3 mice per cage containing 100% virgin wood pulp bedding (Harlan Teklad™, Harlan Sprague Dawley Inc., Indianapolis, IA; cat. no. 7099). Water and food (Harland Teklad™; cat. no. 8640) were available ad libitum. The mice were maintained on a cycle of 12 h of light and 12 h of dark in an environment with a temperature of 74-76° […]. and 40-60% humidity. All cages underwent 40 air changes hourly in the negative pressure mode, in accordance with manufacturer's recommendations. Both the intake and exhaust air from the system were filtered through HEPA filters to maintain a clean environment. […]\nMice were gavaged with BzFβ at doses ranging from 25 mg/kg body to 100 mg/kg body weight, injected intravenously (iv) with 50 μg BzFβ or injected intramuscularly with BzFβ at 25 to 40 mg/kg body weight. For two weeks post-treatment, water intake and weight were monitored. […]"}},
  "data": [
    {"smiles": "O=C(O)/C=C/c1ccc2occc2c1", "note": "[BzFβ, (2E)-3-(1-benzofuran-5-yl)prop-2-enoic acid]", "values": [
      {"measurement": "overall surface expression (MFI) of MHC class I", "setting": "[1]; 1-4 h", "result": "no significant effect"},
      {"measurement": "overall surface expression (MFI) of MHC class I", "setting": "[1]; 24 h", "result": "significant increase"},
      {"measurement": "effect of direct treatment on B3Z viability or activation", "setting": "B3Z cells", "result": "no effect on cell viability or cell activation"},
      {"measurement": "IC50", "setting": "HEK293T", "result": 432, "unit": "µM"},
      {"measurement": "displacing pre-bound peptide versus no exchange factor or provided exchange molecule", "setting": "[2]", "result": "significantly better"},
      {"measurement": "solubility", "setting": "[3]", "result": 20, "unit": "mg/mL"},
      {"measurement": "in vivo toxicity", "setting": "[4]; at the doses tested", "result": "non-toxic"},
      {"measurement": "body and organ weights", "setting": "[4]; gavage 25-100 mg/kg, iv 50 μg, im 25-40 mg/kg, two weeks", "result": "no differences were measured"}
    ]}
  ]
}
